The assay addresses T1, progesterone receptor (Homo sapiens, UniProt P06401).
T1 sequence (P06401 1-933): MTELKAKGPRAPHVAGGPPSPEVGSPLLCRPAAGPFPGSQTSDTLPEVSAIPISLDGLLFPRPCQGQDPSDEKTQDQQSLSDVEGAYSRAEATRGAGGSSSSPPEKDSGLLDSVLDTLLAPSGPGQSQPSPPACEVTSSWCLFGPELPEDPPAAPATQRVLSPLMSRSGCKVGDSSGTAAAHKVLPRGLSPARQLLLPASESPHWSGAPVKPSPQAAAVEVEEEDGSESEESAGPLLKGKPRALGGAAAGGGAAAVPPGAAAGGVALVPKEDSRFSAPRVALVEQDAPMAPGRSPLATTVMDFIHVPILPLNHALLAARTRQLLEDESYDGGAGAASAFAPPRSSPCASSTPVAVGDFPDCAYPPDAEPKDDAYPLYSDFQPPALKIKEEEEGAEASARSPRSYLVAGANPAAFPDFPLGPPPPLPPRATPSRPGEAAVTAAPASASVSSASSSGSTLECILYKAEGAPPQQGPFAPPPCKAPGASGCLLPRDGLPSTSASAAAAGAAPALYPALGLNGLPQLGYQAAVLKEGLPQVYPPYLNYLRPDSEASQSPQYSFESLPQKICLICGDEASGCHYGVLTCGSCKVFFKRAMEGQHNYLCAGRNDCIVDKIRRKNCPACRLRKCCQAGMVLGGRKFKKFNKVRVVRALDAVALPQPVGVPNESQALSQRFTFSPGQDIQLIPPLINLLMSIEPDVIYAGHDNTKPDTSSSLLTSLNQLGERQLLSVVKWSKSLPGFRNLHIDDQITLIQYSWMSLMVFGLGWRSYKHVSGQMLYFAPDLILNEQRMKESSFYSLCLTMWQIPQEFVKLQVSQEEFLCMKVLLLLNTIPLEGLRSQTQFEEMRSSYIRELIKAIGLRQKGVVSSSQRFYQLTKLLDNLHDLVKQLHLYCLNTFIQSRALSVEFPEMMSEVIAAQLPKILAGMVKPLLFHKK
Kind of assay: T47D alkaline phosphatase assay for progesterone receptor modulator (antagonist) activity. The format is cell-based. On the set-up: endogenous in cells; host or cells: T47D cells. Particulars: T47D cells; for IC50: antagonist mode in the presence of 1 nM progesterone, 24 hours. The protocol: An assay was performed to identify compounds having progesterone receptor modulator activity. This assay identifies progestins or antiprogestins by determining a compound's effect on alkaline phosphatase activity in T47D cells.
Culture medium: DMEM:F12 (1:1) (GIBCO, BRL) supplemented with 5% (v/v) charcoal stripped fetal bovine serum (not heat-inactivated), 100 U/mL penicillin, 100 μg/mL streptomycin, and 2 mM the GlutaMax® reagent (GIBCO, BRL).
Alkaline phosphatase assay buffer: • I. 0.1M Tris-HCl, pH 9.8, containing 0.2% the Triton™ X-100 reagent • II. 0.1M Tris-HCl, pH 9.8, containing 4 mM p-nitrophenyl phosphate (Sigma).
Frozen T47D cells are thawed in a 37° C. water bath and diluted to 280,000 cells/mL in culture medium. To each well in a 96-well plate (Falcon, Becton Dickinson Labware), 180 μL of diluted cell suspension is added.
Twenty μL of reference or test compounds diluted in the culture medium is then added to each well. When testing for progestin antagonist activity, reference antiprogestins or test compounds are added in the presence of 1 nM progesterone. The cells are incubated at 37° C. in a 5% CO2/humidified atmosphere for 24 hours.
For high throughput screening, one concentration of each compound will be tested at 0.3 μg/mL. Based on an average molecular weight of 300 g/mol for the compounds in the library, the concentration is approximately 1 μM. Subsequently, active compounds will be tested in dose response assays to determine EC50 and IC50.
At the end of treatment, the medium is removed from the plate. Fifty μL of assay buffer I is added to each well. The plates are shaken in a titer plate shaker for 15 minutes. Then 150 μL of assay buffer II is added to each well. Optical density measurements are taken at 5 minute intervals for 30 minutes at a test wavelength of 405 nm.
Analysis of dose-response data. For reference and test compounds, a dose response curve is generated for dose (x-axis) vs. the rate of enzyme reaction (slope) (y-axis). Square root-transformed data are used for analysis of variance and nonlinear dose response curve fitting for both agonist and antagonist modes. Huber weighting is used to down-weight the effects of outliers. EC50 or IC50 values are calculated from the retransformed values. The JMP® software (SAS Institute, Inc.) is used for both one-way analysis of variance and non-linear dose response analysis in both single dose and dose response studies.
Progesterone and trimegestone are reference progestins and RU486 is the reference antiprogestin. All reference compounds are run in full dose response curves and the EC50 and IC50 values are calculated.
In the table provided above, the IC50 values show the relative progesterone receptor antagonist activity in this assay. Lower numbers are indicative of higher potency, i.e., greater PR antagonist activity. Further, the assay has a standard deviation of about ±6.

`CCc1cc(-c2ccc(C#N)n2C)ccc1NC#N` [Example 30, [4-(5-cyano-1-methyl-1H-pyrrol-2-yl)-2-ethylphenyl]cyanamide]: the IC50 – broadly, the concentration that gives 50% inhibition – was ~300 nM.

With `Cn1c(C#N)ccc1-c1ccc(NS(C)(=O)=O)cc1F` [Example 40, N-[4-(5-cyano-1-methyl-1H-pyrrol-2-yl)-3-fluorophenyl]methanesulfonamide], the “Active Dose” value turned out to be 10 µM and the IC50 was found to be 18.3 nM.

As for `CC(C)COC(=O)Nc1ccc(-c2ccc(C#N)n2C)cc1` [Example 14, Isobutyl[4-(5-cyano-1-methyl-1H-pyrrol-2-yl)phenyl]carbamate], the IC50 was determined as 378 nM.

For `C=CCn1c(C#N)ccc1-c1ccc(NS(=O)(=O)CC)cc1` [Example 69, N-[4-(1-allyl-5-cyano-1H-pyrrol-2-yl)phenyl]ethanesulfonamide], the IC50 stood at 600 nM.

Turning to `Cn1c(C#N)ccc1-c1ccc(N)c(F)c1` [Example 2, 5-(4-amino-3-fluorophenyl)-1-methyl-1H-pyrrole-2-carbonitrile], the IC50 was determined as 65.4 nM.

Take `Cn1c(C#N)ccc1-c1ccc(NS(=O)(=O)c2ccccc2)cc1` [Example 21, N-[4-(5-cyano-1-methyl-1H-pyrrol-2-yl)phenyl]benzenesulfonamide]: the IC50 is ~30 nM.

For `CCS(=O)(=O)Nc1cc(F)c(-c2ccc(C#N)n2C)cc1F` [Example 47, N-[4-(5-cyano-1-methyl-1H-pyrrol-2-yl)-2,5-difluorophenyl]ethane-sulfonamide], the IC50 turned out to be 22.1 nM.

`CCCn1c(C#N)ccc1-c1ccc(NS(=O)(=O)CC)cc1` [Example 67, N-[4-(5-cyano-1-propyl-1H-pyrrol-2-yl)phenyl]ethanesulfonamide]: the IC50 was 721 nM.

Take `CCS(=O)(=O)Nc1ccc(-c2ccc(C#N)[nH]2)cc1` [Example 65, N-[4-(5-cyano-1H-pyrrol-2-yl)phenyl]ethanesulfonamide]: the IC50 was 68.6 nM. In addition, the “Antagonist Efficacy” value (in the presence of 1 nM progesterone) came to 85%.

For the compound `CCCCn1c(C#N)ccc1-c1ccc(NS(=O)(=O)CC)cc1` [Example 68, N-[4-(1-butyl-5-cyano-1H-pyrrol-2-yl)phenyl]ethanesulfonamide], the IC50 came to 546 nM.

Regarding `Cn1c(C#N)ccc1-c1ccc(NC(=O)c2ccco2)cc1` [Example 3, N-[4-(5-cyano-1-methyl-1H-pyrrol-2-yl)phenyl]-2-furamide], the IC50 stood at 126 nM.

Regarding `CCC(=O)Nc1ccc(-c2ccc(C#N)n2C)cc1` [Example 6, N-[4-(5-cyano-1-methyl-1H-pyrrol-2-yl)phenyl]propanamide], the IC50 was determined as 76.7 nM.

Regarding `Cn1c(C#N)ccc1-c1ccc(NS(=O)(=O)CC(F)(F)F)cc1` [Example 19, N-[4-(5-cyano-1-methyl-1H-pyrrol-2-yl)phenyl]-2,2,2-trifluoroethanesulfonamide], the IC50 amounted to 58.4 nM.

As to `COc1cc(-c2ccc(C#N)n2C)ccc1NC#N` [Example 35], the IC50 is < 300 nM.

Consider `CCOC(=O)Nc1ccc(-c2ccc(C#N)n2C)cc1` [Example 13, Ethyl[4-(5-cyano-1-methyl-1H-pyrrol-2-yl)phenyl]carbamate], for which the IC50 is 266 nM.

Take `CCCS(=O)(=O)Nc1ccc(-c2ccc(C#N)n2C)c(C(F)(F)F)c1` [Example 54, N-[4-(5-cyano-1-methyl-1H-pyrrol-2-yl)-3-(trifluoromethyl)phenyl]propane-1-sulfonamide]: the 50% inhibitory concentration (IC50) was 9.4 nM.

For `Cn1c(C#N)ccc1-c1ccc(NS(C)(=O)=O)cc1C(F)(F)F` [Example 52, N-[4-(5-cyano-1-methyl-1H-pyrrol-2-yl)-3-(trifluoromethyl)phenyl]methane-sulfonamide], the IC50 came to 13.4 nM.

In the case of `CCS(=O)(=O)Nc1ccc(-c2ccc(C#N)n2C)c(F)c1` [Example 41, N-[4-(5-cyano-1-methyl-1H-pyrrol-2-yl)-3-fluorophenyl]ethanesulfonamide], the “Active Dose” value is 10 µM and the IC50 is 3.8 nM.

With `Cn1c(C#N)ccc1-c1c(F)cc(NS(C)(=O)=O)cc1F` [Example 79, N-[4-(5-cyano-1-methyl-1H-pyrrol-2-yl)-3,5-difluorophenyl]-methanesulfonamide], the IC50 was determined as 16 nM.

With `C#CCn1c(C#N)ccc1-c1ccc(NS(=O)(=O)CC)cc1` [Example 70, N-[4-(5-cyano-1-prop-2-yn-1-yl-1H-pyrrol-2-yl)phenyl]ethanesulfonamide], the IC50 was 797 nM.

Regarding `CCCC(=O)Nc1ccc(-c2ccc(C#N)n2C)cc1` [Example 7, N-[4-(5-cyano-1-methyl-1H-pyrrol-2-yl)phenyl]butanamide], the IC50 was 78.8 nM.

As to `CC(C)CC(=O)Nc1ccc(-c2ccc(C#N)n2C)cc1` [Example 4, N-[4-(5-cyano-1-methyl-1H-pyrrol-2-yl)phenyl]-3-methylbutanamide], the IC50 amounted to 304 nM.

Turning to `CC(=O)Nc1ccc(-c2ccc(C#N)n2C)cc1` [Example 8, N-[4-(5-cyano-1-methyl-1H-pyrrol-2-yl)phenyl]acetamide], the IC50 was ~300 nM.

As for `CCS(=O)(=O)Nc1ccc(-c2ccc(C#N)n2CCCc2ccccc2)cc1` [Example 71, N-{4-[5-cyano-1-(3-phenylpropyl)-1H-pyrrol-2-yl]phenyl}ethanesulfonamide], the “Active Dose” value was 3 µM. Moreover, 3 µM produced 15% inhibition (at Active Dose 3000 nM).

For the compound `CCS(=O)(=O)Nc1cc(F)c(-c2ccc(C#N)n2C)c(F)c1` [Example 80, N-[4-(5-cyano-1-methyl-1H-pyrrol-2-yl)-3,5-difluorophenyl]ethane-sulfonamide], the IC50 came out at 19 nM.

Take `CC(C)c1ccc(S(=O)(=O)Nc2ccc(-c3ccc(C#N)n3C)cc2)cc1` [Example 20, N-[4-(5-cyano-1-methyl-1H-pyrrol-2-yl)phenyl]-4-isopropylbenzenesulfonamide]: the IC50 was ~3000 nM.

Turning to `Cn1c(C#N)ccc1-c1ccc(NC#N)c(Cl)c1` [Example 33, [2-chloro-4-(5-cyano-1-methyl-1H-pyrrol-2-yl)phenyl]cyanamide], the IC50 turned out to be 897 nM.

In the case of `Cn1c(C#N)ccc1-c1ccc(NS(C)(=O)=O)c(OC(F)(F)F)c1` [Example 59, N-[4-(5-cyano-1-methyl-1H-pyrrol-2-yl)-2-(trifluoromethoxy)phenyl]methane-sulfonamide], the IC50 was 32.2 nM.

Regarding `Cn1c(C#N)ccc1-c1ccc(NS(C)(=O)=O)cc1C#N` [Example 74, N-[3-cyano-4-(5-cyano-1-methyl-1H-pyrrol-2-yl)phenyl]methanesulfonamide], the IC50 was found to be 198 nM.

For `C=C(C)C(=O)Nc1ccc(-c2ccc(C#N)n2C)cc1` [Example 12, N-[4-(5-cyano-1-methyl-1H-pyrrol-2-yl)phenyl]-2-methylacrylamide], the IC50 stood at 97.2 nM.

As to `CC(C)S(=O)(=O)Nc1cc(F)c(-c2ccc(C#N)n2C)cc1F` [Example 50, N-[4-(5-cyano-1-methyl-1H-pyrrol-2-yl)-2,5-difluorophenyl]propane-2-sulfonamide], the IC50 worked out at 231 nM.

For the origin of these results see US20070027201A1 (Wyeth, priority 2005, published 2007).
